Patent US11046694B2, “Compounds and methods for treating bacterial infections” (Entasis Therapeutics, Inc., priority 2018, dated 2021)
Where a name gives a salt, the structure may show the parent alone.

Assays:
P. aeruginosa PBP1a = P. aeruginosa PBP1a (Pseudomonas aeruginosa, UniProt Q07806); assay type: biochemical; settings: P. aeruginosa PBP1a 60 nM, BOCILLIN FL 30 nM, pH 7.0
P. aeruginosa PBP2 = molecular target: T1, P. aeruginosa PBP2 (Pseudomonas aeruginosa, UniProt Q9X6V3); assay type: biochemical; settings: P. aeruginosa PBP2 300 nM, BOCILLIN FL 30 nM, pH 6.2
T1 sequence (Q9X6V3 1-646): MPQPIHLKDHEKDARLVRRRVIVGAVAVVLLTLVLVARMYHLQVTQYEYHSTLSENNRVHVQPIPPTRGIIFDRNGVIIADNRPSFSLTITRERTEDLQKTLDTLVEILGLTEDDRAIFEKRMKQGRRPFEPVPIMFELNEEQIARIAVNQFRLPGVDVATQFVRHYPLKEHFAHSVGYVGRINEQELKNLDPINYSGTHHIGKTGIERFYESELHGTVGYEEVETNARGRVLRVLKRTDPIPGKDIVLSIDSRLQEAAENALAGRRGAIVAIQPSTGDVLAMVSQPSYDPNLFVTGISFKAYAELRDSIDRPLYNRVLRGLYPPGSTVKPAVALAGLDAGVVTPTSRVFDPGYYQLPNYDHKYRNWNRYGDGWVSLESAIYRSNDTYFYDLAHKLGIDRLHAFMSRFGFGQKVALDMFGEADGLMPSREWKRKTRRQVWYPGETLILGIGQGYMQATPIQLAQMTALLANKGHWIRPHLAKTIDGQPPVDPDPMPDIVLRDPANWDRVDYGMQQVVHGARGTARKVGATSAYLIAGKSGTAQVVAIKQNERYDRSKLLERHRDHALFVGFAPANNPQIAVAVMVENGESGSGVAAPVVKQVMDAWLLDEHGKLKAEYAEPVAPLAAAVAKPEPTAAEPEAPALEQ

P. aeruginosa PBP3 = P. aeruginosa PBP3 (Pseudomonas aeruginosa, UniProt G3XD46); assay type: biochemical; settings: P. aeruginosa PBP3 60 nM, BOCILLIN FL 30 nM, pH 7.0
P. aeruginosa WT (PAO1) = assay: MIC, CLSI broth microdilution, P. aeruginosa; assay type: cell-based; settings: Pseudomonas aeruginosa, PAO1; CLSI broth microdilution; read-out: P. aeruginosa WT (PAO1) MIC
E. coli (ATCC25922) = assay: MIC against E. coli; settings: Escherichia coli, ATCC25922, read-out: E. coli MIC (ATCC25922) (mg/L)
A. baumannii (ARC3495) = assay: MIC against A. baumannii; settings: Acinetobacter baumannii, read-out: A. baumannii MIC (ARC3495) (mg/L)
[1] = system: K. pneumoniae (ATCC700603); assay: MIC against K. pneumoniae; settings: Klebsiella pneumoniae, ATCC700603, read-out: K. pneumoniae MIC (ATCC700603)
B. pseudomallei = assay: microbe, parasite or virus in culture; settings: Burkholderia pseudomallei, read-out: MIC against B. pseudomallei
B. mallei = assay: microbe, parasite or virus in culture; settings: Burkholderia mallei, read-out: MIC against B. mallei
F. tularensis = assay: microbe, parasite or virus in culture; settings: Francisella tularensis, read-out: MIC against F. tularensis
Y. pestis = assay: microbe, parasite or virus in culture; settings: Yersinia pestis, read-out: MIC against Y. pestis
B. anthracis = assay: microbe, parasite or virus in culture; settings: Bacillus anthracis, read-out: MIC against B. anthracis

P. aeruginosa PBP3, sequence (G3XD46 whole entry): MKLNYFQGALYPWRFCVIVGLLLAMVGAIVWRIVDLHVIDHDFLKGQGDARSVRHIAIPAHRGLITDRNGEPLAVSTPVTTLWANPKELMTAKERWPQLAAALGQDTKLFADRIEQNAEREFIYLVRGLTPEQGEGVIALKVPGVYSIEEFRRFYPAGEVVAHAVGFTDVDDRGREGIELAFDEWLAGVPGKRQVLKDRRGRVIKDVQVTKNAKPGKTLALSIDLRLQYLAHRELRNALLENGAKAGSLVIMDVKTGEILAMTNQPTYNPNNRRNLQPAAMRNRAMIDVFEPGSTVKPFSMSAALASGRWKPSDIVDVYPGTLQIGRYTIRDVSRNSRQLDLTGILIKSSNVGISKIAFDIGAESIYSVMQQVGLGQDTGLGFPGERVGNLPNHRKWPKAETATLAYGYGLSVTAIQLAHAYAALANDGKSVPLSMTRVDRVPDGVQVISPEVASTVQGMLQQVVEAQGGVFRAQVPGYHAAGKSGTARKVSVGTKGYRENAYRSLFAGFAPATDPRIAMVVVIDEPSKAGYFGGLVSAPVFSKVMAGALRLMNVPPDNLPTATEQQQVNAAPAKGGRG
P. aeruginosa PBP1a, sequence (Q07806 whole entry): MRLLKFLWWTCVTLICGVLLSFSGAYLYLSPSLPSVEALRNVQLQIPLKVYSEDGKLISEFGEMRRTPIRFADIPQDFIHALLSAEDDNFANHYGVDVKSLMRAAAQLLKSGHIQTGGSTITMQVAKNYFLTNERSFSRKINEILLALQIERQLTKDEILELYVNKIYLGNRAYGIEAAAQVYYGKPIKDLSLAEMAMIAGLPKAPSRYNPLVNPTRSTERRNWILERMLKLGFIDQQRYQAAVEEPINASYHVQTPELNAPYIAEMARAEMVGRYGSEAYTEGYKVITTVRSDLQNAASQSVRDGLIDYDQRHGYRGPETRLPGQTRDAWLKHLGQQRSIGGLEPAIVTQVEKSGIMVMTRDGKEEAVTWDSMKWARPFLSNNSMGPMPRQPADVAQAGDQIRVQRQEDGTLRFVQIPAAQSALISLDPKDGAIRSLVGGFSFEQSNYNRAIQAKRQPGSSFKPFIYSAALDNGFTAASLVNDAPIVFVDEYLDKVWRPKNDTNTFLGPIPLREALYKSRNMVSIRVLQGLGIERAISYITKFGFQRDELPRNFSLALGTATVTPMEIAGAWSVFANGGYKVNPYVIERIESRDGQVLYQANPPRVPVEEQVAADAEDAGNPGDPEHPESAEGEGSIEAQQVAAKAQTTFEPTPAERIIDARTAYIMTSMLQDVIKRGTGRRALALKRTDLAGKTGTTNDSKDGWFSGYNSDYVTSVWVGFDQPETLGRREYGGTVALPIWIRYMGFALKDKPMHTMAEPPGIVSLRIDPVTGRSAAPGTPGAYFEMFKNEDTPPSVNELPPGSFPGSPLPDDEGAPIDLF

| SMILES | PBP1a acylation rate, k(on) (M^−1 · s^−1) (P. aeruginosa PBP1a) | PBP2 acylation rate, k(on) (M^−1 · s^−1) (P. aeruginosa PBP2) | PBP3 acylation rate, k(on) (M^−1 · s^−1) (P. aeruginosa PBP3) | MIC (P. aeruginosa WT (PAO1)) | MIC (E. coli (ATCC25922)) | MIC (A. baumannii (ARC3495)) | MIC [1] | MIC (B. pseudomallei) | MIC (B. mallei) | MIC (F. tularensis) | MIC (Y. pestis) | MIC (B. anthracis) |
| --- | --- | --- | --- | --- | --- | --- | --- | --- | --- | --- | --- | --- |
| CN/C(=N\O)[C@@H]1c2c(cnn2C)[C@@H]2CN1C(=O)N2OS(=O)(=O)O (stereo in doubt) [Example 40, Sodium (4R*,8S*)-8-((Z)—N′-hydroxy-N-methylcarbamimidoyl)-1-methyl-6-oxo-4,8-dihydro-1H-4,7-methanopyrazolo[3,4-e][1,3]diazepin-5(6H)-yl hydrogen sulfate] | ** (** represents a k(on) of 100 to 10,000 M^−1 · s^−1) | * (* represents a k(on) < 100 M^−1 · s^−1) | *** (*** represents a k(on) > 10,000 M^−1 · s^−1) | < 8 µg/mL | < 8 mg/L | < 8 mg/L | < 8 µg/mL | < 4 µg/mL | < 4 µg/mL | < 4 µg/mL | < 4 µg/mL | < 4 µg/mL |
| Cn1ncc2c1[C@@H](c1noc(=O)n1Cc1nc(N)cs1)N1C[C@@H]2N(OS(=O)(=O)O)C1=O [Example 53, (4R,8S)-8-(4-((4-aminothiazol-2-yl)methyl)-5-oxo-4,5-dihydro-1,2,4-oxadiazol-3-yl)-1-methyl-6-oxo-4,8-dihydro-1H-4,7-methanopyrazolo[3,4-e][1,3]diazepin-5(6H)-yl hydrogen sulfate] | ** (** represents a k(on) of 100 to 10,000 M^−1 · s^−1) | * (* represents a k(on) < 100 M^−1 · s^−1) | ** (** represents a k(on) of 100 to 10,000 M^−1 · s^−1) | > 16 µg/mL | < 8 mg/L | > 16 mg/L | > 16 µg/mL | – | – | – | – | – |
| CCN1CCN(C(=O)NC/C(=N\O)[C@@H]2c3c(cnn3C)[C@@H]3CN2C(=O)N3OS(=O)(=O)O)C(=O)C1=O [Example 55, (4R,8S)-8-((E)-2-(4-ethyl-2,3-dioxopiperazine-1-carboxamido)-1-(hydroxyimino)ethyl)-1-methyl-6-oxo-4,8-dihydro-1H-4,7-methanopyrazolo[3,4-e][1,3]diazepin-5(6H)-yl hydrogen sulfate] | * (* represents a k(on) < 100 M^−1 · s^−1) | * (* represents a k(on) < 100 M^−1 · s^−1) | * (* represents a k(on) < 100 M^−1 · s^−1) | > 16 µg/mL | < 8 mg/L | > 16 mg/L | > 16 µg/mL | – | – | – | – | – |
| Cn1ncc2c1[C@@H](/C(CNS(N)(=O)=O)=N/O)N1C[C@@H]2N(OS(=O)(=O)O)C1=O [Example 56, (4R,8S)-8-((E)-1-(hydroxyamino)-2-(sulfamoyl)amino)ethyl)-1-methyl-6-oxo-4,8-dihydro-1H-4,7-methanopyrazolo[3,4-e][1,3]diazepin-5(6H)-yl hydrogen sulfate] | ** (** represents a k(on) of 100 to 10,000 M^−1 · s^−1) | * (* represents a k(on) < 100 M^−1 · s^−1) | ** (** represents a k(on) of 100 to 10,000 M^−1 · s^−1) | > 16 µg/mL | < 8 mg/L | > 16 mg/L | > 16 µg/mL | – | – | – | – | – |
| Cn1ncc2c1[C@@H](c1noc(=O)n1C)N1C[C@@H]2N(OS(=O)(=O)O)C1=O [Example 66, ((4R,8S)-1-methyl-8-(4-methyl-5-oxo-4,5-dihydro-1,2,4-oxadiazol-3-yl)-6-oxo-4,8-dihydro-1H-4,7-methanopyrazolo[3,4-e][1,3]diazepin-5(6H)-yl hydrogen sulfate] | ** (** represents a k(on) of 100 to 10,000 M^−1 · s^−1) | * (* represents a k(on) < 100 M^−1 · s^−1) | ** (** represents a k(on) of 100 to 10,000 M^−1 · s^−1) | > 16 µg/mL | < 8 mg/L | > 16 mg/L | > 16 µg/mL | – | – | – | – | – |
| Cn1ncc2c1[C@@H](/C(=N/O)C(N)=O)N1C[C@@H]2N(OS(=O)(=O)O)C1=O [Example 67, (4R,8S)-8-((Z)-2-amino-1-(hydroxyimino)-2-oxoethyl-1-methyl-6-oxo-4,8-dihydro-1H-4,7-methanopyrazolo[3,4-e][1,3]diazepin-5(6H)-yl hydrogen sulfate] | * (* represents a k(on) < 100 M^−1 · s^−1) | * (* represents a k(on) < 100 M^−1 · s^−1) | ** (** represents a k(on) of 100 to 10,000 M^−1 · s^−1) | > 16 µg/mL | < 8 mg/L | > 16 mg/L | > 16 µg/mL | – | – | – | – | – |
| CN/C(=N\O)[C@@H]1c2c(cnn2CCCCN)[C@@H]2CN1C(=O)N2OS(=O)(=O)O [Example 68, (4R,8S)-1-(4-aminobutyl)-8-((Z)—N′-hydroxy-N-methylcarbamimidoyl)-6-oxo-4,8-dihydro-1H-4,7-methanopyrazolo[3,4-e][1,3]diazepin-5(6H)-yl hydrogen sulfate] | * (* represents a k(on) < 100 M^−1 · s^−1) | * (* represents a k(on) < 100 M^−1 · s^−1) | ** (** represents a k(on) of 100 to 10,000 M^−1 · s^−1) | < 8 µg/mL | 8 to 16 mg/L | 8 to 16 mg/L | > 16 µg/mL | – | – | – | – | – |
| CC(=O)O/N=C(\N)[C@@H]1c2c(cnn2C)[C@@H]2CN1C(=O)N2OS(=O)(=O)O [Example 70, Pyridium (4R,8S)-8-((Z)—N′-acetoxycarbamimidoyl)-1-methyl-6-oxo-4,8-dihydro-1H-4,7-methanopyrazolo[3,4-e][1,3]diazepin-5(6H)-yl hydrogen sulfate] | * (* represents a k(on) < 100 M^−1 · s^−1) | * (* represents a k(on) < 100 M^−1 · s^−1) | ** (** represents a k(on) of 100 to 10,000 M^−1 · s^−1) | > 16 µg/mL | 8 to 16 mg/L | > 16 mg/L | > 16 µg/mL | – | – | – | – | – |
| C/C(=N\O)[C@@H]1c2c(cnn2C)[C@@H]2CN1C(=O)N2OS(=O)(=O)O [Example 71, (4R,8S)-8-((E)-1-(hydroxyimino)ethyl)-1-methyl-6-oxo-4,8-dihydro-1H-4,7-methanopyrazolo[3,4-e][1,3]diazepin-5(6H)-yl hydrogen sulfate] | * (* represents a k(on) < 100 M^−1 · s^−1) | * (* represents a k(on) < 100 M^−1 · s^−1) | ** (** represents a k(on) of 100 to 10,000 M^−1 · s^−1) | 8 to 16 µg/mL | 8 to 16 mg/L | > 16 mg/L | > 16 µg/mL | – | – | – | – | – |
| CN(N)/C(=N\OS(=O)(=O)O)[C@@H]1c2c(cnn2C)[C@@H]2CN1C(=O)N2OS(=O)(=O)O [Example 72, ((((Z)-((4R,8S)-1-methyl-6-oxo-5-(sulfooxy)-4,5,6,8-tetrahydro-1H-4,7-methanopyrazolo[3,4-e][1,3]diazepin-8-yl)(1-methylhydrazineyl)methylene)amino)oxy)sulfonic acid] | ** (** represents a k(on) of 100 to 10,000 M^−1 · s^−1) | * (* represents a k(on) < 100 M^−1 · s^−1) | *** (*** represents a k(on) > 10,000 M^−1 · s^−1) | > 16 µg/mL | < 8 mg/L | > 16 mg/L | > 16 µg/mL | – | – | – | – | – |
